Earlier results, collected in patent US20160208299A1, “PRODUCTION OF ISOQUINOLINE ALKALOIDS AND FLAVONOIDS IN PLANT CELL CULTURES OF GOLDENSEAL (HYDRASTIS CANADENSIS)” (DIANAPLANTSCIENCES INC., priority 2015, published 2016).

Tests used:
[1] = tested on: Entamoeba histolytica
[2] = tested on: Giardia lamblia
[3] = tested on: Trichomonas vaginalis
[4] = tested on: E. coli; conditions: cells lining the walls of the urinary tract

COc1ccc2cc3[n+](cc2c1OC)CCc1cc2c(cc1-3)OCO2 [berberine]
effective: effectiveness against parasite [1] | effectiveness against parasite [2] | effectiveness against parasite [3] | effectiveness in treating infection by blocking the adhesion of E. coli [4]
